Results on two compounds are retold here after publication PMC12865225 (Clinical and Translational Science, 2026).

Where “and” joins values, the source holds several entries; their conditions need not be identical. Equal values may be shown once. Marks after values point to notes of the source that are not given here. A value given as a limit tells only on which side of the number the result lay.

Data set [1] has as its target T1, OATP1B1 (Homo sapiens, UniProt Q9Y6L6).
T1 construct: expressed in transfected cells; host or cells: HEK293 (recombinant baculovirus-mediated transduction)
T1 sequence (Q9Y6L6 1-691): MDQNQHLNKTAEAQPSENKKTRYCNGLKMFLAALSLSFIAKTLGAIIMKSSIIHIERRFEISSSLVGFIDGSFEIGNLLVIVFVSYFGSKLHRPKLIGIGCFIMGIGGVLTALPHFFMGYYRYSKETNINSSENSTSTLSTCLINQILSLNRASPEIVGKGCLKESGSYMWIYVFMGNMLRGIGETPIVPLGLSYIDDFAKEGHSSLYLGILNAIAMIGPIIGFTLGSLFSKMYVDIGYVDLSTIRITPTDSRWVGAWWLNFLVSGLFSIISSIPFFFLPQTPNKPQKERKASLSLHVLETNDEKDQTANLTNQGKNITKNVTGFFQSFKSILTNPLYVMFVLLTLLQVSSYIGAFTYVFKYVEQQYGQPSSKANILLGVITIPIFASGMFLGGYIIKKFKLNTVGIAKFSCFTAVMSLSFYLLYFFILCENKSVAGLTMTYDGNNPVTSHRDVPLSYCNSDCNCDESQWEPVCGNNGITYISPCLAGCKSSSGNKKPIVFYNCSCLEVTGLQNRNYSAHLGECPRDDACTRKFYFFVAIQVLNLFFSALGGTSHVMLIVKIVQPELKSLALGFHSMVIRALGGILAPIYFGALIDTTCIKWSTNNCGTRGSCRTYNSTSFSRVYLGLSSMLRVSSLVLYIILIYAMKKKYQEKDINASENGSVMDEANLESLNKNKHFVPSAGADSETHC
The experiment in a line: OATP1B1 inhibition, rosuvastatin uptake into transporter-expressing HEK293 cells. The format is cell-based. Particulars: for IC50: IC50 (95% CI), μM OATP1B1, 2.5 μM rosuvastatin, 2 min, 30 min preincubation; for Calculated R-value OATP1B1: R = 1 + (I in,max,u/IC50), FDA cut-off ≥ 1.1. On the procedure:
(§1) The human transporters OATP1B1, OATP1B3, OATP2B1, and OAT1‐OAT4 and a negative control protein (enhanced yellow fluorescent protein, eYFP) were transiently expressed in human embryonic kidney 293 (HEK293) cells by recombinant baculovirus‐mediated transduction. Baculoviruses carrying human genes for the transporters were prepared as reported previously. HEK293 cells were cultured in DMEM containing 10% fetal bovine serum at 37°C and 5% CO2 and passaged two to three times per week. For the transport studies, 0.05 × 10^6 cells for 48‐well plates (OATPs) or 0.06 × 10^6 cells for 24‐well plates (OATs) were seeded onto cell‐culture treated well plates coated with poly‐D‐lysine. After 1 day, cells were transduced to produce recombinant proteins by changing media to DMEM containing 30 μL (48‐well plates) or 60 μL (24‐well plates) of recombinant baculovirus and 3 mM (OATs) or 5 mM (OATPs) sodium butyrate in a total media volume of 500 μL. The cells were cultured for a further 2 days before the transport assays.
(§2) For the transport studies, media were removed and cells were washed once with warm transport uptake buffer (TP‐buffer—pH 7.4 HBSS with 25 mM HEPES and 4 mM sodium bicarbonate). Each experiment included triplicate (OATP) or duplicate (OAT) samples for every test condition. The uptake was started by removing liquid from wells and applying warm TP‐buffer (200 μL for 24‐well plates or 125 μL for 48‐well plates) containing a test compound to cells. Transport assays were terminated after a pre‐specified incubation time (reported in figure legends) by removing substrate solution and washing cells three times with cold TP‐buffer (300 μL for 48‐well plates and 400 μL for 24‐well plates). For the liquid chromatography mass spectrometry (LC–MS) analysis, compounds were extracted from cells with 125 μL (48‐well plates) or 250 μL (24‐well plates) of an ultrapure‐water solution containing 75% methanol and 0.1% formic acid, shaking at 250 RPM for 30 min. […] Samples were transferred to well plates, centrifuged at 3000 g for 30 min, and transferred to a new well plate for the analysis.
(§3) In the OATP inhibition assays, inhibitors in warm TP‐buffer were directly applied to cells after media removal, followed by a 30‐min preincubation step in the presence of inhibitors. […] OAT1 and OAT3 cells were lysed with 200 μL of 1 M sodium hydroxide for 10 min, and 150 μL of these samples were transferred to a black well plate for fluorescein quantification. […]
(§4) For the inhibition data analysis, the average of measured concentrations in the control cells was subtracted from the average of measured concentrations in transporter‐expressing cells for each inhibitor concentration and then normalized to the vehicle sample that represents 100% transport activity. […]

In data set [2] the test system is T2, OAT1.
T2 construct: expressed in transfected cells; host or cells: HEK293 (recombinant baculovirus-mediated transduction)
The experiment in a line: OAT1 inhibition, fluorescein uptake into HEK293 cells. The format is cell-based. Particulars: human, HEK293 cells transiently expressing OAT1, pH 7.4, probe fluorescein 5 µM; 200 μM inhibitor, 5 μM fluorescein; read-out: inhibition of fluorescein transport into OAT1-expressing cells. On the procedure: as §1, with “After 1 day, cells were transduced to produce recombinant proteins by changing media to DMEM containing 30 μL (48‐well plates) or 60 μL (24‐well plates) of recombinant baculovirus and 3 mM (OATs) or 5 mM (OATPs) sodium butyrate in a total media volume of 500 μL. The cells were cultured for a further 2 days before the transport assays.” left out
as §3, §4

Data set [3] deals with T3, OAT3 (Homo sapiens, UniProt Q8TCC7).
T3 sequence (Q8TCC7 1-542): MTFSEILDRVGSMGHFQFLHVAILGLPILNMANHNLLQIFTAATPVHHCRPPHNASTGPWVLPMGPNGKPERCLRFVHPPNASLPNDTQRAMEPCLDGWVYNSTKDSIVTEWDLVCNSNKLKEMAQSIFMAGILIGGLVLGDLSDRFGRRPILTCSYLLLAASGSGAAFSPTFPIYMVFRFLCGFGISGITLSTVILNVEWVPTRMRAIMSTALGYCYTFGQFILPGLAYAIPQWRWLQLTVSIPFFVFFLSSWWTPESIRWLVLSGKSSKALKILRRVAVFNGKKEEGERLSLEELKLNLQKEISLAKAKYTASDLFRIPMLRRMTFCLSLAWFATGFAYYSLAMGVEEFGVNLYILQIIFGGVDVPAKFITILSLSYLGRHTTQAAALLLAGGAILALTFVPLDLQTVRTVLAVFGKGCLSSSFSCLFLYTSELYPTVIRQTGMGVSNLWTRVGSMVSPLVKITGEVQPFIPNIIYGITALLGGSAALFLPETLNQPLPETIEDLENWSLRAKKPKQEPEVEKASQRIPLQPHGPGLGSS
The experiment in a line: Uptake transport assay in OAT3-expressing HEK293 cells. Particulars: for transport by OAT3: 2 and 50 μM, 10 min; for Vmax (pmol/106 cells/min) OAT3: uptake, 2 min. Here is the method: as §1, §2
Equation (2) (the Michaelis–Menten equation) was fit to the transport kinetic assay data. […] (2) Uptake=Vmax×S/Km+S

In general, IC50 refers to the concentration needed to halve the response being measured. A higher IC50 goes with lower potency. As usually defined, the inhibition is the drop in the measured response relative to a control, in per cent. On to `Cc1onc(-c2c(Cl)cccc2Cl)c1C(=O)N[C@@H]1C(=O)N2[C@@H]1SC(C)(C)[C@@H]2C(=O)O` [Dicloxacillin], for which, in data set [1], the IC50 is 3.9 µM and 3.86 µM; the “Calculated R-value OATP1B1” value is given as 2.4 ^a. For the same compound, the inhibition at 5 min, 200 μM in data set [2] is less than 50%. For the same compound, in data set [3], the “transport by OAT3” value is “transported” and the “Vmax (pmol/106 cells/min) OAT3” value turned out to be 296 pmol/106 cells/min.

In the case of `Cc1onc(-c2c(F)cccc2Cl)c1C(=O)N[C@@H]1C(=O)N2[C@@H]1SC(C)(C)[C@@H]2C(=O)O` [Flucloxacillin], in data set [1], the IC50 is 31 µM and the “Calculated R-value OATP1B1” value is reported as 1.5 ^a. For the same compound, the inhibition at 5 min, 200 μM in data set [2] was less than 50%. In data set [3], the “transport by OAT3” value is recorded as “transported” and the “Vmax (pmol/106 cells/min) OAT3” value is recorded as 277 pmol/106 cells/min.
